The text below walks through data of patent US10718770B2, “Methods for screening compounds for treating or preventing a viral infection or a virus-related condition” (ABIVAX, priority 2015, dated 2020).

As a reminder, the inhibition is the relative decrease from the control value, in per cent.

One series concerns HIV-1 strain YU2. Description: HIV-1 p24 production in infected monocyte derived-macrophages. Format: cell-based. Particulars: Human immunodeficiency virus 1, Primary macrophage, read-out: inhibition levels of virus replication (p24). An excerpt: FIG. 5. Potency of indole derivatives to inhibit HIV-1 production in PBMC- and macrophages-infected cells. A) HIV-1 strain Ada-MR5 was used to infect triplicate of activated PBMCs from different donors (stimulated for two days with PHA and IL2) in the absence or presence of increasing concentrations of Compound 1. Supernatant was harvested 6 days post-infection (pi) and viral capsid protein p24 antigen was quantitated using standard ELISA protocol. Each point represents 6 donors. B) HIV-1 strain YU2 was used to infect triplicate of monocyte derived-macrophages from different donors in the absence or presence of increasing concentrations of Compound 1. Supernatant was harvested 8 days pi and viral capsid protein p24 antigen was quantitated using standard ELISA protocol. Each point represents 8 donors.
To generate monocyte derived macrophages (MDMs), monocytes were isolated using CD14 microbeads (catalog no. 130-050-201; Miltenyi) and cultured in X-VIVO10 medium (Lonza) supplemented with GM-CSF 1000 U/ml and M-CSF 100 ng/ml for 6 days. Monocytes were seeded at a cell count of 50′000 cells per well in a 96 well plate. After 6 days medium was replaced with X-VIVO10 w/o Cytokines. […]
Cells were treated with 0.01 μM up to 30 μM and p24 antigen levels were monitored in culture supernatant over a 12 day period. […]

In the next series the test system is YU2 HIV-1 virus. As to the kind of experiment: Humanized mice infected with YU2 HIV-1 virus, viral load. The series is classed as in vivo, mouse (NSG humanized). To be noted: after 30 days of 40 mg/kg daily. Here is the method: (§1) FIG. 7. Efficacy of Compound 1 to inhibit viral replication in humanized mice. A) Reconstituted SCID mice were infected with JRCSF HIV-1 strain by intraperitoneal injection. Control group received by gavage labrafil and 5% DMSO (n=15) and treated group 20 mg/kg b.i.d of Compound 1 in labrafil and 5% DMSO (n=14) for 15 days. Two independent experiments were performed with 5 and 10 reconstituted mice for each group. Viral load was assessed by measuring viral RNA using the Amplicor HIV-1 Monitor from Roche. B) FACS analysis was performed on peritoneal wash at day 15 post-treatment to assess the CD8/CD4 ratio. C) Engrafted NSG humanized mice were treated by oral gavage with Compound 1 at either 20 mg or 40 mg/kg once a day for 30 days and indicated lymphocyte populations (CD45+; CD4+ and CD8+) were monitored by FACS analysis. […] Viral load was assessed by measuring viral RNA using the Amplicor HIV-1 Monitor from Roche. […]
(§2) Briefly, newborn (<5 days old) NSG mice received sub-lethal (1 Gy) total body irradiation with a Cs source, and then received […] transduced or untransduced CD34+ human HSCs using a 50 μl Hamilton syringe via the intrahepatic (i.h.) route. […] Mice were monitored three times a week for symptoms or signs of adverse events, according to a standard score sheet. […]

A short description of series [1]: Lymphocyte populations in engrafted humanized mice treated for 30 days. Format: in vivo. Particulars: one month, 20 mg/kg or 40 mg/kg, compared to controls without treatment. The method, then: as §1, §2
A further series relates to PBMCs. Description: Lymphocyte populations in treated PBMCs. Format: cell-based, human.

With `FC(F)(F)Oc1ccc(Nc2ccc3cccc(Cl)c3n2)cc1` [Compound 1, 8-chloro-N-(4-(trifluoromethoxy)phenyl)quinolin-2-amine], in the series on HIV-1 strain YU2, the inhibition at 0.1 µM is ≤ 90%. In addition, in the series on YU2 HIV-1 virus, the “time the viral load remained low after treatment termination” value was “at least 50 days”. For the same compound, the “engraftment values of CD45+ cells and ratio of CD8+/CD4+” value in series [1] is recorded as “neither alters engraftment values of CD45+ cells nor the ratio of CD8+/CD4+”. Moreover, the “effect on the different populations of lymphocytes present in PBMCs” value with PBMCs was “did not alter”.
